Source: patent publication US10894784B2, “Heteroarylbenzimidazole compounds” (BAYER PHARMA AKTIENGESELLSCHAFT, priority 2015, dated 2021)
Read-outs that look alike come from different tables or passages of the source.

Biological target: TBK1 (Homo sapiens (Human), UniProt Q9UHD2)
Test: TBK1 low ATP kinase assay (in vitro assay 1)
Format: biochemical
[1] = in vitro assay 1, read-out: TBK1 low ATP kinase assay IC50

TBK1, sequence (Q9UHD2 whole entry): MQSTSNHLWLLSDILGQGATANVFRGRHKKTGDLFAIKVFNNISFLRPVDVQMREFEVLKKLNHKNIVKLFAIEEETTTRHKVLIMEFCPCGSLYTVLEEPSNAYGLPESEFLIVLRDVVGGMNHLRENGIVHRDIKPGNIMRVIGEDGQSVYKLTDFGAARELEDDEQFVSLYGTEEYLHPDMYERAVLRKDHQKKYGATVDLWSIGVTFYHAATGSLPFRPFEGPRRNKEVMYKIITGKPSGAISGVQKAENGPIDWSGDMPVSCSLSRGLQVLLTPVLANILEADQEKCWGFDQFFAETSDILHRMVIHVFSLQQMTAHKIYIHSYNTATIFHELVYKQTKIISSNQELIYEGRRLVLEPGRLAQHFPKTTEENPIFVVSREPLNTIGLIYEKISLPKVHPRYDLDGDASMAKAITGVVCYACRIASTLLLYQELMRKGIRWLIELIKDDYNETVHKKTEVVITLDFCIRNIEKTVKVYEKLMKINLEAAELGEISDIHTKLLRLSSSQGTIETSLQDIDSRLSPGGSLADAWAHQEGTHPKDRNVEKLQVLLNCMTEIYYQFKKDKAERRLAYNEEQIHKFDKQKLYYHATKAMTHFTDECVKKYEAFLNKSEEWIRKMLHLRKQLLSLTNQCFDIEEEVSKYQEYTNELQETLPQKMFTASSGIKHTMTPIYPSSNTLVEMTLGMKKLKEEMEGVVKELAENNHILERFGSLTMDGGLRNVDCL

| SMILES | IC50 [1] [nM] | IC50 (TBK1 low ATP kinase assay IC50, in vitro assay 1) [nM] |
| --- | --- | --- |
| CC(C)(C)OC(=O)N1CCN(Cc2ccnc(Nc3nc4ccc(-c5nc(C6CC6)no5)cc4[nH]3)c2)CC1 [Example 17.01, tert-butyl 4-[(2-{[6-(3-cyclopropyl-1,2,4-oxadiazol-5-yl)-1H-benzimidazol-2-yl]amino}pyridin-4-yl)methyl]piperazine-1-carboxylate] | 97.8 |  |
| CNc1cc(-c2ccc3nc(Nc4cc(CN5CCN(C(=O)OC(C)(C)C)CC5)ccn4)[nH]c3c2)ncn1 [Example 150.01, tert-butyl 4-{[2-({6-[6-(methylamino)pyrimidin-4-yl]-1H-benzimidazol-2-yl}amino)pyridin-4-yl]methyl}piperazine-1-carboxylate] | 15 |  |
| Cc1ncnc(-c2ccc3nc(Nc4cc(CN5CCN(C(=O)CC(F)(F)F)CC5)ccn4)[nH]c3c2)c1C [Example 32.02, 1-{4-[(2-{[6-(5,6-dimethylpyrimidin-4-yl)-1H-benzimidazol-2-yl]amino}pyridin-4-yl)methyl]piperazin-1-yl}-3,3,3-trifluoropropan-1-one] | 1170 |  |
| O=C(CC(F)(F)F)N1CCN(Cc2ccnc(Nc3nc4ccc(-c5cc(N6CCOCC6)ncn5)cc4[nH]3)c2)CC1 [Example 94.01, 3,3,3-trifluoro-1-(4-{[2-({6-[6-(morpholin-4-yl)pyrimidin-4-yl]-1H-benzimidazol-2-yl}amino)pyridin-4-yl]methyl}piperazin-1-yl)propan-1-one] | 7.2 |  |
| COc1cc(-c2ccc3nc(Nc4cc(CN5CCN(C(=O)C6CCC6)CC5)ccn4)[nH]c3c2)c(F)cn1 [Example 03.03, cyclobutyl{4-[(2-{[6-(5-fluoro-2-methoxypyridin-4-yl)-1H-benzimidazol-2-yl]amino}pyridin-4-yl)methyl]piperazin-1-yl}methanone] | 279 |  |
| CC(C)(C)OC(=O)N1CCN(Cc2ccnc(Nc3nc4ccc(-c5ccnc(OCC6CC6)n5)cc4[nH]3)c2)CC1 [Example 62.01.01, tert-butyl 4-{[2-({6-[2-(cyclopropylmethoxy)pyrimidin-4-yl]-1H-benzimidazol-2-yl}amino)pyridin-4-yl]methyl}piperazine-1-carboxylate] | 57.3 |  |
| CC(C)c1cc(-c2ccc3nc(Nc4cc(CN5CCN(C(=O)C6CC6)CC5)ccn4)[nH]c3c2)ncn1 [Example 78.02, cyclopropyl(4-{[2-({6-[6-(propan-2-yl)pyrimidin-4-yl]-1H-benzimidazol-2-yl}amino)pyridin-4-yl]methyl}piperazin-1-yl)methanone] | 15 |  |
| COc1cc(-c2ccc3nc(Nc4cc(CN5CCN(C(=O)CC6CC6)CC5)ccn4)[nH]c3c2)c(F)cn1 [Example 03.04, 2-cyclopropyl-1-{4-[(2-{[6-(5-fluoro-2-methoxypyridin-4-yl)-1H-benzimidazol-2-yl]amino}pyridin-4-yl)methyl]piperazin-1-yl}ethanone] | 288 |  |
| C=CCC(=O)N1CCN(Cc2ccnc(Nc3nc4ccc(-c5nc(C6CC6)no5)cc4[nH]3)c2)CC1 [Example 17.04, 1-{4-[(2-{[6-(3-cyclopropyl-1,2,4-oxadiazol-5-yl)-1H-benzimidazol-2-yl]amino}pyridin-4-yl)methyl]piperazin-1-yl}but-3-en-1-one] | 102 |  |
| Cc1nccc(-c2ccc3nc(Nc4cc(CN5CCN(C(=O)C6CC6)CC5)cc(C(F)(F)F)n4)[nH]c3c2)n1 [Example 24.03.01, cyclopropyl(4-{[2-{[6-(2-methylpyrimidin-4-yl)-1H-benzimidazol-2-yl]amino}-6-(trifluoromethyl)pyridin-4-yl]methyl}piperazin-1-yl)methanone] | 478 |  |
| COc1cc(-c2ccc3nc(Nc4cc(C(C)N5CCN(C(=O)C6CC6)CC5)ccn4)[nH]c3c2)ncn1 (single isomer, unassigned) [Example 34.03.02.A, cyclopropyl{4-[(1R or 1S)-1-(2-{[6-(6-methoxypyrimidin-4-yl)-1H-benzimidazol-2-yl]amino}pyridin-4-yl)ethyl]piperazin-1-yl}methanone] | 46.4 |  |
| CC(O)c1cc(-c2ccc3nc(Nc4cc(CN5CCN(C(=O)CC(F)(F)F)CC5)ccn4)[nH]c3c2)ncn1 (racemic) [Example 97.02, (rac)-3,3,3-trifluoro-1-[4-({2-[(6-{6-[1-hydroxyethyl]pyrimidin-4-yl}-1H-benzimidazol-2-yl)amino]pyridin-4-yl}methyl)piperazin-1-yl]propan-1-one] | 18 |  |
| CC(C)(C)OC(=O)N1CCN(Cc2ccnc(Nc3nc4ccc(-c5ncnc(NCC6CC6)c5F)cc4[nH]3)c2)CC1 [Example 195.01, tert-butyl 4-({2-[(6-{6-[(cyclopropylmethyl)amino]-5-fluoropyrimidin-4-yl}-1H-benzimidazol-2-yl)amino]pyridin-4-yl}methyl)piperazine-1-carboxylate] | 105 |  |
| Cc1noc(-c2ccc3nc(Nc4cc(CN5CCN(C(=O)CC(F)(F)F)CC5)ccn4)[nH]c3c2C)n1 [Example 54.01, 3,3,3-trifluoro-1-{4-[(2-{[7-methyl-6-(3-methyl-1,2,4-oxadiazol-5-yl)-1H-benzimidazol-2-yl]amino}pyridin-4-yl)methyl]piperazin-1-yl}propan-1-one] | 243 |  |
| CCOc1ncnc(-c2ccc3nc(Nc4cc(CN5CCN(C(=O)C6CC6)CC5)ccn4)[nH]c3c2)c1OC [Example 167.03, cyclopropyl{4-[(2-{[6-(6-ethoxy-5-methoxypyrimidin-4-yl)-1H-benzimidazol-2-yl]amino}pyridin-4-yl)methyl]piperazin-1-yl}methanone] | 41.3 |  |
| CC(c1ccnc(Nc2nc3ccc(-c4cc(OCC(C)(F)F)ncn4)cc3[nH]2)c1)N1CCN(C(=O)CC(F)(F)F)CC1 (single isomer, unassigned) [Example 165.02, 1-(4-{(1R or 1S)-1-[2-({6-[6-(2,2-difluoropropoxy)pyrimidin-4-yl]-1H-benzimidazol-2-yl}amino)pyridin-4-yl]ethyl}piperazin-1-yl)-3,3,3-trifluoropropan-1-one] | 1.71 |  |
| CC(C)Cc1nc(-c2ccc3nc(Nc4cc(CN5CCN(C(=O)CC(F)(F)F)CC5)ccn4)[nH]c3c2)n(C)n1 [Example 42.02, 3,3,3-trifluoro-1-(4-{[2-({6-[1-methyl-3-(2-methylpropyl)-1H-1,2,4-triazol-5-yl]-1H-benzimidazol-2-yl}amino)pyridin-4-yl]methyl}piperazin-1-yl)propan-1-one] | 397 |  |
| Cc1noc(-c2ccc3nc(Nc4cc(CN5CCN(C(=O)C6CCC6)CC5(C)C)ccn4)[nH]c3c2)n1 [Example 16.04.05, cyclobutyl{3,3-dimethyl-4-[(2-{[6-(3-methyl-1,2,4-oxadiazol-5-yl)-1H-benzimidazol-2-yl]amino}pyridin-4-yl)methyl]piperazin-1-yl}methanone] | 491 |  |
| COc1c(C)ncnc1-c1ccc2nc(Nc3cc(C(C)N4CCN(C(=O)C5(C(F)(F)F)CC5)CC4)ccn3)[nH]c2c1 (stereo not shown) [Example 83.05, {4-[(1R or IS)-1-(2-{[6-(5-methoxy-6-methylpyrimidin-4-yl)-1H-benzimidazol-2-yl]amino}pyridin-4-yl)ethyl]piperazin-1-yl}[1-(trifluoromethyl)cyclopropyl]methanone] | 2.9 |  |
| Cc1cc(-c2ccc3nc(Nc4cc(C(C)N5CCN(C(=O)CC(F)(F)F)CC5)ccn4)[nH]c3c2)ncn1 (single isomer, unassigned) [Example 30.03.01.B, 3,3,3-trifluoro-1-{4-[(1S or 1R)-1-(2-{[6-(6-methylpyrimidin-4-yl)-1H-benzimidazol-2-yl]amino}pyridin-4-yl)ethyl]piperazin-1-yl}propan-1-one] |  | 2.15 |
| COc1c(NC2CC2)ncnc1-c1ccc2nc(Nc3cc(CN4CCN(C(=O)C5CC5)CC4)ccn3)[nH]c2c1 [Example 108.03, cyclopropyl(4-{[2-({6-[6-(cyclopropylamino)-5-methoxypyrimidin-4-yl]-1H-benzimidazol-2-yl}amino)pyridin-4-yl]methyl}piperazin-1-yl)methanone] | 8.9 |  |
| CC(C)(C)OC(=O)N1CCN(Cc2ccnc(Nc3nc4ccc(-c5cc(NCCO)ncn5)cc4[nH]3)c2)CC1 [Example 81.01, tert-butyl 4-({2-[(6-{6-[(2-hydroxyethyl)amino]pyrimidin-4-yl}-1H-benzimidazol-2-yl)amino]pyridin-4-yl}methyl)piperazine-1-carboxylate] | 13 |  |
| Cc1cc(-c2ccc3nc(Nc4cc(CN5CCN(C(=O)CC6CC6)CC5)ccn4)[nH]c3c2)ncn1 [Example 30.01.03, 2-cyclopropyl-1-{4-[(2-{[6-(6-methylpyrimidin-4-yl)-1H-benzimidazol-2-yl]amino}pyridin-4-yl)methyl]piperazin-1-yl}ethanone] | 16.9 |  |
| CC(c1ccnc(Nc2nc3ccc(-c4cc(N5CCOCC5)ncn4)cc3[nH]2)c1)N1CCN(C(=O)C2CC2)CC1 (single isomer, unassigned) [Example 118.02, cyclopropyl(4-{(1R or 1S)-1-[2-({6-[6-(morpholin-4-yl)pyrimidin-4-yl]-1H-benzimidazol-2-yl}amino)pyridin-4-yl]ethyl}piperazin-1-yl)methanone] | 3.3 |  |
| O=C(C1CC1)N1CCN(Cc2ccnc(Nc3nc4ccc(-c5ncnc(NCC6CCC6)c5F)cc4[nH]3)c2)CC1 [Example 191.03] | 94.8 |  |
| CC(c1ccnc(Nc2nc3ccc(-c4cc(C(F)F)ncn4)cc3[nH]2)c1)N1CCN(C(=O)C2CC2)CC1 (single isomer, unassigned) [Example 174.03, cyclopropyl(4-{(1R or 1S)-1-[2-({6-[6-(difluoromethyl)pyrimidin-4-yl]-1H-benzimidazol-2-yl}amino)pyridin-4-yl]ethyl}piperazin-1-yl)methanone] | 3.26 |  |
| COc1ccncc1-c1ccc2nc(Nc3cc(CN4CCN(C(=O)C5CC5)CC4)ccn3)[nH]c2c1 [Example 14.03, cyclopropyl{4-[(2-{[6-(4-methoxypyridin-3-yl)-1H-benzimidazol-2-yl]amino}pyridin-4-yl)methyl]piperazin-1-yl}methanone] | 550 |  |
| CC(C)Oc1cncnc1-c1ccc2nc(Nc3cc(C(C)N4CCN(C(=O)C5CCC5)CC4)ccn3)[nH]c2c1 (single isomer, unassigned) [Example 36.04, cyclobutyl(4-{(1R or 1S)-1-[2-({6-[5-(propan-2-yloxy)pyrimidin-4-yl]-1H-benzimidazol-2-yl}amino)pyridin-4-yl]ethyl}piperazin-1-yl)methanone] | 2.5 |  |
